Measurements as given in patent EP2526945A1, “New CRTH2 Antagonists” (Almirall, S.A., priority 2011, dated 2012).

Target: T1, CRTh2 receptor (Homo sapiens, UniProt Q9Y5Y4)
T1 construct: expressed in transfected cells; host or cells: CHO.K1 cells (membranes)
T1 sequence (Q9Y5Y4 1-395): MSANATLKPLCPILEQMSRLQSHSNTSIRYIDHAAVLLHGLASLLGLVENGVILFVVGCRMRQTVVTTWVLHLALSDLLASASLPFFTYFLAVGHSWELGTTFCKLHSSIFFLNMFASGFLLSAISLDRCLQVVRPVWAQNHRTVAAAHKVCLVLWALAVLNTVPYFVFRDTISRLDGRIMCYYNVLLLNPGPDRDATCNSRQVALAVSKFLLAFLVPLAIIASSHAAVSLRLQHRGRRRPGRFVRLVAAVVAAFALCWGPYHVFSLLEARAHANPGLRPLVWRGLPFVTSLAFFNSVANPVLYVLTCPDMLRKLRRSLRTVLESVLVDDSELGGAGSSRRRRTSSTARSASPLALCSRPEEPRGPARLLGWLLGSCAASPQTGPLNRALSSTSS
Assay: CRTh2 GTPγS antagonism binding assay
Type: biochemical
Conditions: membranes from CHO.K1 cells stably overexpressing the CRTh2 receptor; PGD2 at 50 nM (EC80); [35S]-GTPγS as radioligand; read-out: GTPγ Binding
Protocol: CRTh2 GTPγS antagonism binding assay
The assay is performed using membranes obtained from CHO.K1 cells stably overexpressing the CRTh2 receptor and [^35S]-GTPγS as radioligand. Assay is performed pre-incubating 4-8 µg of membranes per well with the compound to be tested for 1 h, followed by incubation with PGD2 at 50 nM (EC80), 0.1 nM [^35S]-GTPγS in incubation buffer (20 mM HEPES, 10 mM MgCl2, 100 mM NaCl, 10 µM GDP, 10 µg/ml Saponine and 0.2% BSA) for 2 h at room temperature. The reaction is terminated by filtering in GF/C plates pre-treated with 20 mM HEPES, 10 mM MgCl2, 100 mM NaCl and washing 6 times with wash buffer (20 mM NaH2PO4, 20 mM Na2HPO4). After washing, plates are dried and scintillation buffer Optiphase added. The radioactivity retained in the filter is counted using a Microbeta liquid scintillation counter.

SMILES	IC50
Cc1c(Cc2ccccc2S(=O)(=O)C2CCCCC2)c2c(n1CC(=O)O)CCNC2=O [Example 23, {3-[2-(Cyclohexylsulfonyl)benzyl]-2-methyl-4-oxo-4,5,6,7-tetrahydro-1H-pyrrolo[3,2-c]pyridin-1-yl}acetic acid]	27 nM
Cc1c(Cc2cccn2S(=O)(=O)c2ccccc2)c2c(n1CC(=O)O)CCNC2=O [Example 44, (2-Methyl-4-oxo-3-{[1-(phenylsulfonyl)-1H-pyrrol-2-yl]methyl}-4,5,6,7-tetrahydro-1 H-pyrrolo[3,2-c]pyridin-1-yl)acetic acid]	5.9 nM
